{
  "source": "paper PMC4982760",
  "about": "“Small-molecule inhibitors identify the RAD52-ssDNA interaction as critical for recovery from replication stress and for survival of BRCA2 deficient cells” (eLife, 2016)",
  "key": {"[1]": {"system": "GM01604 cells (hTERT-immortalized wild-type human fibroblasts)", "assay": "Neutral comet assay, MUS81/EME1/RAD52-dependent DSB formation", "type": "cell-based", "conditions": "GM01604, HU + UCN01", "from_the_text": "In human cells, RAD52 may perform both limited recombination-mediator function in the RAD51-dependent pathway ([Lok and Powell, 2012]; [Benson et al., 1998]; [Feng et al., 2011]) as well as additional RAD51-independent roles ([Lok and Powell, 2012]; [Murfuni et al., 2013]; [McIlwraith and West, 2008]). One of these HR independent roles of RAD52 involves stimulation of MUS81/EME1-dependent DSB formation at replication forks stalled by hydroxyurea (HU) treatment in the absence of cellular checkpoints ([Murfuni et al., 2013]). Since the most likely targets of these MUS81/EME1/RAD52-dependent DSBs are the DNA structures produced by RAD52 ([Murfuni et al., 2013]), we expected this activity to depend on the RAD52-ssDNA interaction (Figure 5a). To confirm this, we assessed DSB formation in checkpoint deficient cells using the neutral comet assay. These assays monitor MUS81/EME1/RAD52-dependent DSB formation upon induction of replication stress by HU treatment in primary fibroblasts immortalized by hTERT expression and treated with UNC01 to inhibit CHK1 kinase (Figure 5b). […] Importantly, these inhibitors recapitulate RAD52 depletion by inhibiting RAD52-MUS81-dependent DSBs at stalled replication forks (Figure 5a–b). […] It also confirms our previous supposition that the target of MUS81/EME1-mediated cleavage under these conditions are indeed the structures annealed by RAD52. […]\nTo induce RAD52-MUS81-dependent cleavage at arrested replication forks ([Murfuni et al., 2013]), hTERT-immortalized wild-type human fibroblasts (GM01604) were treated with 2 mM HU and 300 nM UCN01 for 6h, in the presence and absence of varying concentrations of ‘1’ or ‘6’. […] Slides were analyzed by a computerized image analysis system (Comet IV, Perceptive UK). To assess the quantity of DNA damage, computer-generated tail moment values (tail length x fraction of total DNA in the tail) were used. […] A minimum of 100 cells were analyzed for each compound concentration point."}, "RPA-ssDNA interaction": {"target": "T1, RPA-ssDNA interaction (Homo sapiens, UniProt P15927+P27694+P35244)", "T1 construct": "made in house", "T1 sequence (P27694 whole entry)": "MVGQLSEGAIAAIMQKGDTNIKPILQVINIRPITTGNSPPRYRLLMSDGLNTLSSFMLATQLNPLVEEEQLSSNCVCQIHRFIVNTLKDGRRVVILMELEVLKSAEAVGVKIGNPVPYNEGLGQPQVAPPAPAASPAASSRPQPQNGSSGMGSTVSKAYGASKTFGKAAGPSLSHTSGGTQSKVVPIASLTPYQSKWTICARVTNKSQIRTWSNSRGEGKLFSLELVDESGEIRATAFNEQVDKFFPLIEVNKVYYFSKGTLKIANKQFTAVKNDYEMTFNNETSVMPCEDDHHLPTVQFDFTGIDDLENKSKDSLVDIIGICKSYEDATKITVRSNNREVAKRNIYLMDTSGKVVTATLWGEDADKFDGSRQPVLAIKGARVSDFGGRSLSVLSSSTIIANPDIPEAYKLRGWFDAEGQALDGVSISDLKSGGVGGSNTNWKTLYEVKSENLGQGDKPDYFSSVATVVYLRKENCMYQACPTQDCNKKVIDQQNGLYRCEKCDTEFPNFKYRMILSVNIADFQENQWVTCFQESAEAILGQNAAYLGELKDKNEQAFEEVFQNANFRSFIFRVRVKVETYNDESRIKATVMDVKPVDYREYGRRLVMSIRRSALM", "T1 sequence (P15927 whole entry)": "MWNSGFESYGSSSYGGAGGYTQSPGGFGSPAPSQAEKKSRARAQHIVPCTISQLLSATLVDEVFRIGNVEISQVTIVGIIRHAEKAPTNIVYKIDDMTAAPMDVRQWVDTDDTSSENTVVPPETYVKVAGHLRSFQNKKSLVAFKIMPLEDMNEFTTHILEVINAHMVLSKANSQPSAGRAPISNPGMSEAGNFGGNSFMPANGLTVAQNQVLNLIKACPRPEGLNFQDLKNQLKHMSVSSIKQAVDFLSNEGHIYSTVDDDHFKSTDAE", "T1 sequence (P35244 whole entry)": "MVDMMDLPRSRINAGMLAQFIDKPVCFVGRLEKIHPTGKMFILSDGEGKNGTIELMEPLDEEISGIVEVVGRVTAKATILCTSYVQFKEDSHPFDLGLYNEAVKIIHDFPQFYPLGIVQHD", "assay": "FRET titration of the RPA-Cy3-dT30-Cy5 complex", "type": "binding", "conditions": "range of tested concentrations", "from_the_text": "In the cell, ssDNA is typically found in complex with Replication protein A (RPA), the major eukaryotic ssDNA-binding protein essential for DNA replication, repair and recombination ([Wold, 1997]; [Oakley and Patrick, 2010]; [Chen and Wold, 2014]). The RPA-ssDNA complex is a physiologically relevant substrate for the RAD52-mediated strand annealing. […] RPA binds ssDNA with high affinity and extends the ssDNA to its contour length. In our assays such an extension manifests as a distinct FRET state of ~0.3, which is readily distinguished from a FRET state of ~0.48 of free Cy3-dT30-Cy5 ssDNA, as well as ~0.63 FRET of the stoichiometric ssDNA-RPA-RAD52 complex (see Figure 2—figure supplement 1 and ([Grimme and Spies, 2011]) for details). […] Both, however, inhibited the RAD52 binding to and wrapping of RPA-coated ssDNA with IC50 values identical to those determined without RPA (Figure 2e and Figure 3e).\nIn all experiments, the FRET values for each data point were corrected for the effects of the compounds on the respective substrate in the absence of RAD52."}},
  "data": [
    {"smiles": "Oc1cc(O)c2c(c1)O[C@H](c1cc(O)c(O)c(O)c1)[C@H](O)C2", "note": "[Compound 1, (−)−Epigallocatechin]", "values": [
      {"measurement": "concentration sufficient for same level of DSB reduction as siRNA treatment", "setting": "[1]", "value": 1, "unit": "µM"},
      {"measurement": "concentration with same reduction in DSBs as siRNA depletion of RAD52", "setting": "[1]", "value": 500, "unit": "nM"},
      {"measurement": "effect on the RPA-ssDNA interaction", "setting": "RPA-ssDNA interaction", "value": "neither ‘1’ nor ‘6’ affected the RPA-ssDNA interaction"}
    ]}
  ]
}
